According to PubChem BioAssay (NCI):
Values joined by “and” are separate entries in the source; they are usually repeats but may differ in a detail not shown here. Equal values may be shown once.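 96-well plates; 48 h exposure; 5 concentrations. Endpoints by linear interpolation between flanking doses. Not reached: highest tested concentration assigned. GI50 is the concentration that inhibits growth by half. Definition used: TGI = concentration required for complete inhibition of growth.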

What was measured:
Experiment in all cases: NCI tumour cell line growth inhibition, 48 h
DMS 114 small cell lung = test system: DMS 114 small cell lung
DMS 273 small cell lung = test system: DMS 273 small cell lung
SNB-78 CNS = test system: SNB-78 CNS
M19-MEL melanoma = test system: M19-MEL melanoma
LXFL 529 NSCLC = test system: LXFL 529 NSCLC
XF 498 CNS = test system: XF 498 CNS
HOP-18 NSCLC = test system: HOP-18 NSCLC
DLD-1 colon = test system: DLD-1 colon
RXF-631 renal = test system: RXF-631 renal
SN12K1 renal = test system: SN12K1 renal
P388 leukemia = test system: P388 leukemia
P388/ADR leukemia = test system: P388/ADR leukemia

SMILES | TGI (DMS 114 small cell lung) [µM] | TGI (DMS 273 small cell lung) [µM] | TGI (SNB-78 CNS) [µM] | TGI (M19-MEL melanoma) | TGI (LXFL 529 NSCLC) | TGI (XF 498 CNS) [µM] | TGI (HOP-18 NSCLC) | TGI (DLD-1 colon) | TGI (RXF-631 renal) [µM] | TGI (SN12K1 renal) [µM] | TGI (P388 leukemia) [µM] | TGI (P388/ADR leukemia) [µM] | GI50 (M19-MEL melanoma) [µM] | GI50 (LXFL 529 NSCLC) [µM] | GI50 (HOP-18 NSCLC) [µM] | GI50 (DLD-1 colon) [µM]
O=C1NC(Cc2ccccc2)C(=O)N2CCCC12 (stereo unspecified) | > 100 | > 100 | > 100 | > 100 µM | > 100 µM | > 100 | > 100 µM | > 100 µM |  |  |  |  |  |  |  | 
COc1cc(CC2C(=O)OCC2[C@@H](OC(C)=O)c2ccc3c(c2)OCO3)c(Br)c(OC)c1OC (stereo partly specified) | > 100 | > 100 |  | > 100 µM | > 100 µM | > 100 | > 100 µM | > 100 µM |  |  |  |  |  |  |  | 
O=C1C(=Cc2ccc([N+](=O)[O-])o2)C(=O)N(CCc2ccccc2)S(=O)(=O)N1CCc1ccccc1 |  | > 100 | 94.9 | 31.7 µM | 30.6 µM | 34.9 | > 100 µM | 34.1 µM |  |  |  |  |  |  |  | 
Cc1cc(=O)[nH]c(NNC(C#N)c2ccc(N(C)C)cc2)n1 (stereo unspecified) | > 100 | > 100 | > 100 | > 100 µM |  |  | > 100 µM | > 100 µM |  |  |  |  |  |  |  | 
NNC(=S)NN/C=C(\C=Nc1ccccc1)[N+](=O)[O-] | > 100 |  |  | > 100 µM | > 100 µM | > 100 |  | > 100 µM | > 100 |  |  |  |  |  |  | 
COCC1N=C(c2cc(OC)c(OC)c(OC)c2-c2cc3c(cc2[C@@H](C)O)OCO3)O[C@H]1c1ccccc1 (stereo partly specified) |  | > 100 | > 87.4 | > 100 µM |  |  | > 100 µM | > 100 µM |  | > 100 | > 100 | > 100 |  |  |  | 
O=C1NC2OC(CO)C(O)C(O)C2O1 (stereo unspecified) | > 100 | > 100 | > 100 | > 100 µM | > 100 µM |  | > 100 µM | > 100 µM |  |  |  |  |  |  |  | 
COc1ccc(OC)c(-c2cc(=O)c3cc4c(cc3[nH]2)OCO4)c1 | 13.9 | 20.9 | > 100 | > 100 µM | 49.6 µM | 35.9 | > 100 µM | > 100 µM |  |  |  |  |  |  |  | 
O=C1C(Cl)C(c2ccc([N+](=O)[O-])cc2)N1n1cnc2ccccc2c1=O (stereo unspecified) | > 100 | > 100 | 88.1 |  | > 100 µM | > 100 | > 100 µM | > 100 µM |  |  |  |  |  |  |  | 
COc1ccc(C2NC3=C(CCCC3)N2)cc1 | > 100 | > 100 | > 100 | > 100 µM | > 100 µM | > 100 |  | > 100 µM |  |  |  |  |  |  |  | 
Cc1nc(-n2nc(-c3ccccc3)cc2-c2ccccc2)sc1C(/C=C/c1ccc([N+](=O)[O-])cc1)=N/NC(N)=S | 73.5 |  | 56.7 | > 100 µM | > 100 µM |  |  | > 100 µM |  |  |  |  |  |  |  | 
Nc1ccn(CCCC(c2ccccc2)P(=O)(O)O)c(=O)n1 (stereo unspecified) | > 100 | > 100 | > 100 | > 100 µM | > 100 µM |  | > 100 µM | > 100 µM |  |  |  |  |  |  |  | 
COC(=O)CC1NC(=O)C1C(C)(OC)OC (stereo unspecified) | > 100 | > 100 |  | > 100 µM | > 100 µM | > 100 |  | > 100 µM | > 100 |  |  |  |  |  |  | 
O=C(CC(=O)N1N=C(c2ccccc2)C(N=Nc2ccccc2Cl)C1=O)Nc1ccccc1Cl (stereo unspecified) | > 100 | > 100 | > 100 | > 100 µM | > 100 µM | 51.1 |  | > 100 µM | > 100 |  |  |  |  |  |  | 
CN(C)CCNC(=O)c1cccc2[nH]c(-c3ccc(Cl)cc3)nc12 | 21.7 | 14.3 | 37.7 | 19.7 µM |  | 17.6 | 61.1 µM | 24.5 µM |  | 14.8 | 14.5 | 18.4 |  |  |  | 
CCOC(=O)C1=C(O)c2ccc(OC)cc2C(=O)C1=O | > 100 | > 100 | > 100 | 44.4 µM |  |  | 66.5 µM | > 100 µM |  |  |  |  |  |  |  | 
N/C(=N/N=C/c1cccc(F)c1)NO | 84.7 | > 100 | > 100 | > 100 µM | > 100 µM | > 100 | > 100 µM | > 100 µM | > 100 |  |  |  |  |  |  | 
Cc1cc(C)c(C(=O)/C(=C/c2ccccc2)c2ccccc2)c(C)c1 | > 100 |  |  | > 100 µM | > 100 µM | > 100 | > 100 µM | > 100 µM | > 100 |  |  |  |  |  |  | 
CC(C)OC(=O)c1cccnc1/C=N/O | > 100 | > 100 | > 100 | > 100 µM | > 100 µM | > 100 |  | > 100 µM |  |  |  |  |  |  |  | 
COc1cc(CC(=O)c2cc3c(cc2-c2ccccc2)OCO3)cc(OC)c1OC | > 100 | > 100 | > 100 |  | > 100 µM | 77.3 | > 100 µM | > 100 µM |  |  |  |  |  |  |  | 
NC(CS)C(=O)NCCNc1ccc(NCCNC(=O)C(N)CS)c2c1C(=O)c1c(O)ccc(O)c1C2=O (stereo unspecified) |  |  |  | 0.863 µM and 1.01 µM | 0.927 µM and 0.631 µM | 0.463 | 3.9 µM and 0.484 µM | 1.03 µM and 0.762 µM |  |  |  |  | 0.138 | 0.0673 | 0.0307 | 0.0638
Brc1ccc(C[N+]23CN4CN(CN(C4)C2)C3)cc1 | 51.1 | 52.9 | > 100 | > 100 µM |  |  |  |  |  |  |  |  |  |  |  | 
COc1ccc(N2C(=O)C3C=CC(n4[nH]c(=O)n(Cc5ccccc5)c4=O)CC3C2=O)cc1 (stereo unspecified) | > 100 | > 100 | > 100 | > 100 µM | > 100 µM | > 100 | > 100 µM | > 100 µM |  |  |  |  |  |  |  | 
O=C(CSc1nnc(-c2ccc(N=Cc3ccc(Cl)cc3)cc2)o1)Nc1cccc([N+](=O)[O-])c1 | > 100 | > 100 | > 100 | > 100 µM | > 100 µM |  | > 100 µM |  |  |  |  |  |  |  |  | 
